This is an account of results in ChEMBL document CHEMBL2074007, “Characterization of the transport of nucleoside analog drugs by the human multidrug resistance proteins MRP4 and MRP5” (Mol Pharmacol, 2003).

One data set addresses MRP5 (ABCC5) (Homo sapiens, UniProt O15440). Nature of the data set: TP_TRANSPORTER: inhibition of alaninyl-d4TMP uptake (alaninyl-d4TMP: 1 uM, Zaprinast: 100uM) in MRP5-expressing HEK293 cells. In kind it is functional, cell-based. Set-up: scale not given: the % may be the effect or the level left. Particulars: probe alaninyl-d4TMP (1 uM), read-out: Activity.
Another data set has as its target T1, MRP4 (ABCC4) (Homo sapiens, UniProt O15439).
T1 sequence (O15439 whole entry): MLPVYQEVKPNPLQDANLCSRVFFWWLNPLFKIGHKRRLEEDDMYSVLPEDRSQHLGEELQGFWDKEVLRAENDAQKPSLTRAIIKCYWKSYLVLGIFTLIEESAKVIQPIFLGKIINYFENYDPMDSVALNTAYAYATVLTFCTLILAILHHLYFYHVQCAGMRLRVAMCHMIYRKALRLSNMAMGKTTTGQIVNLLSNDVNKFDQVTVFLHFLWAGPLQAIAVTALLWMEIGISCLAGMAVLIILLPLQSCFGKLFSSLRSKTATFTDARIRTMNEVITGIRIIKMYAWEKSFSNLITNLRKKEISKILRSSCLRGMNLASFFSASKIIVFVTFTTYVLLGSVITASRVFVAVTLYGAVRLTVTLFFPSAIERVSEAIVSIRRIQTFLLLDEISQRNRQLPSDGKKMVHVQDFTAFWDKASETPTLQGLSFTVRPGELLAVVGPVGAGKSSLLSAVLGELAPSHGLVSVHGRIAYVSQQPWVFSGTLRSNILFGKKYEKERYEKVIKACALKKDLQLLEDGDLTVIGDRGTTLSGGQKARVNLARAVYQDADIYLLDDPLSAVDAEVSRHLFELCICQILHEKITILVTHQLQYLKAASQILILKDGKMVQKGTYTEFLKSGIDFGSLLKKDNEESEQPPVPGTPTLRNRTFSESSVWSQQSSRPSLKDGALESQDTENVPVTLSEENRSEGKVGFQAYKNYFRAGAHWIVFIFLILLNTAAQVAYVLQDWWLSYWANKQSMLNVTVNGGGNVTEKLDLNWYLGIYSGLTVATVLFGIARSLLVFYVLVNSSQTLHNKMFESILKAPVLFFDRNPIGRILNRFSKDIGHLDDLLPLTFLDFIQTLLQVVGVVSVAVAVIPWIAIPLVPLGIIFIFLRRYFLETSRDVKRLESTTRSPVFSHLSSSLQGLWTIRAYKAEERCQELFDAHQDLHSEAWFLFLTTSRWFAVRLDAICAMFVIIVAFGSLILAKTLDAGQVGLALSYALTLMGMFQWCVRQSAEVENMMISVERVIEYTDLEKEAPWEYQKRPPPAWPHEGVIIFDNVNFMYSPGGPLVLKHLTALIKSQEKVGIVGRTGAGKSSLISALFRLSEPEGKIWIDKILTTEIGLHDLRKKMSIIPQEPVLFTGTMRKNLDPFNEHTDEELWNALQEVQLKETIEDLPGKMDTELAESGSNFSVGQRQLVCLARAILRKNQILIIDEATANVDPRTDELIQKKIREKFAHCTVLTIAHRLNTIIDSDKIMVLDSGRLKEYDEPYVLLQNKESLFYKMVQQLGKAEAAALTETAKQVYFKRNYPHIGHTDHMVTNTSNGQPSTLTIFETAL
Description: TP_TRANSPORTER: inhibition of E217betaG uptake (E217betaG: 30 uM, Zaprinast: 100uM) in MRP4-expressing HEK293 cells. In kind it is functional, cell-based. Set-up: scale not given: the % may be the effect or the level left. To be noted: probe E217betaG (30 uM), read-out: Activity.

For data set [1], the target named is ATP-binding cassette sub-family C member 5 (Homo sapiens, UniProt O15440). It counts as functional, cell-based, HEK293.
Data set [2] deals with T2, ATP-binding cassette sub-family C member 4 (Homo sapiens, UniProt O15439).
T2 sequence (O15439 whole entry): T1 sequence (O15439 whole entry)
In kind it is functional, cell-based, HEK293.

Bounds are passed on as bounds.

Sequence of ATP-binding cassette sub-family C member 5 (O15440 whole entry): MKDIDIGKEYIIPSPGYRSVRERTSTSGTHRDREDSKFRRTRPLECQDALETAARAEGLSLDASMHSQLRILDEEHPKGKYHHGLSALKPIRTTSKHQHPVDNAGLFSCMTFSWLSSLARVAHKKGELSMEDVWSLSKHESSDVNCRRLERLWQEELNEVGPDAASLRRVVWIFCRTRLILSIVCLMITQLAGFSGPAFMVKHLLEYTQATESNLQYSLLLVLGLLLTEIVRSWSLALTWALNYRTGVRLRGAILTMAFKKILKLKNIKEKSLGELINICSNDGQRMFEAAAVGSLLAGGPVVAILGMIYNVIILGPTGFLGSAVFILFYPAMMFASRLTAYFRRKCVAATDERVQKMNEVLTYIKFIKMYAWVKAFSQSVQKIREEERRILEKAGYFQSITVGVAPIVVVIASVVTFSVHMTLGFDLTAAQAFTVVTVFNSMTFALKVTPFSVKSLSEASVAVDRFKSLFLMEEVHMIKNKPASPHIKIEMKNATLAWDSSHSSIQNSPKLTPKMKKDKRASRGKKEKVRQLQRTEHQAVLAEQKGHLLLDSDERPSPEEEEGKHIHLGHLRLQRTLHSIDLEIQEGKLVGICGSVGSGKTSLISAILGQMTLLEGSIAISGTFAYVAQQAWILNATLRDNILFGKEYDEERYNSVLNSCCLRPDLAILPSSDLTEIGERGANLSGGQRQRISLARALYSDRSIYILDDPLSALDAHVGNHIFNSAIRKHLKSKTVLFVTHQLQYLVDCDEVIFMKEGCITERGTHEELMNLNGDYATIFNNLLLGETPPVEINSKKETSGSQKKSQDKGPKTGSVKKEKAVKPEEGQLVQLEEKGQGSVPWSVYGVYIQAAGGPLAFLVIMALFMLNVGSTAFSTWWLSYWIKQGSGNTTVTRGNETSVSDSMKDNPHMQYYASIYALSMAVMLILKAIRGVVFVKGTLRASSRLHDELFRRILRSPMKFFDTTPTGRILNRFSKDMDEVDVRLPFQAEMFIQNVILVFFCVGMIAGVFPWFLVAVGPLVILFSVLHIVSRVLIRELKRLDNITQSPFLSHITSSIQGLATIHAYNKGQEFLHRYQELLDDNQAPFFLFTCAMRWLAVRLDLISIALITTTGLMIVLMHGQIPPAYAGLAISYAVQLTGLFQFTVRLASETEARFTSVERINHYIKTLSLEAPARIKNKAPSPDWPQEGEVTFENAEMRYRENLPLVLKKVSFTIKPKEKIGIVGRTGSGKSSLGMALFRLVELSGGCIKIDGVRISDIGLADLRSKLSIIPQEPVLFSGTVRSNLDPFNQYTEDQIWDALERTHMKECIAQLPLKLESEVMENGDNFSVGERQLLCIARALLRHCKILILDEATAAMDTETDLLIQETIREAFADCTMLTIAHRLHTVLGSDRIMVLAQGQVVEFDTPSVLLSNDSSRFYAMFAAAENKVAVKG
Sequence of MRP5 (ABCC5) (O15440 whole entry): as above

`Nc1nc2c(ncn2[C@@H]2O[C@@H]3COP(=O)(O)O[C@H]3[C@H]2O)c(=O)[nH]1`: the activity at 100 µM was 37% on MRP5 (ABCC5) and 48% on MRP4 (ABCC4).
On to `COc1cc(C(=O)OCCCN2CCCN(CCCOC(=O)c3cc(OC)c(OC)c(OC)c3)CC2)cc(OC)c1OC` [DILAZEP], for which the IC50 in data set [1] is above 50 µM; in data set [2], 20 µM.
In turn, `CN(C)C(=O)CCSC(SCCC(=O)O)c1cccc(/C=C/c2ccc3ccc(Cl)cc3n2)c1` (stereo not given) [MK-571] returned an IC50 in data set [1] of 40 µM.
The compound `O=[N+]([O-])c1ccc(CSc2ncnc3c2ncn3[C@@H]2O[C@H](CO)[C@@H](O)[C@H]2O)cc1` [NITROBENZYLMERCAPTOPURINE RIBONUCLEOSIDE] gave an IC50 in data set [2] of 75 µM.
As to `COc1cc2c(cc1OC)-c1c/c(=N\c3c(C)cc(C)cc3C)n(C)c(=O)n1CC2` [TREQUINSIN], the IC50 in data set [1] was determined as 30 µM; in data set [2] it was 10 µM.
On to `CCCOc1ccccc1-c1nc2nn[nH]c2c(=O)[nH]1` [ZAPRINAST], for which the figures for the activity at 100 µM on MRP5 (ABCC5) and at MRP4 (ABCC4) were 12% and 7%, respectively.
